Data on eight compounds can be found in patent US20090131343A1, “USE OF BRIDGED MACROLIDES OR TYLOSIN DERIVATIVES IN TREATING INFLAMMATORY BOWEL DISEASES” (priority 2007, published 2009).

The test system of this assay is NFkB. The experiment in a line: In vitro inflammatory assay: TNFα-induced NFkB luciferase reporter in Jurkat cells. The assay is classed as cell-based. Conditions: for IC50 / inhibition at 120 µM: Homo sapiens; for IC50: read-out: IC50 (μM), in vitro inflammatory data (inhibition of NFkB activity). As to the method: I. Protocol for In Vitro Inflammatory Assay:
• 1. Jurkat cell line expressing a luciferase reporter under the control of an NFkB promoter sequence was created. Clones were isolated using G418 and then characterized for enhanced luciferase activity following stimulation of cells with either TNFα or PMA+Ionomycin. • 2. Assay protocol was as follows: • Day 1: Cells were split to a density of 1.1×10^5 cells/mL. • Day 2: • Cells were adjusted to a density of 2×10^5/mL. • 100 μl of cells were added to each well of a 96-well plate. • Test compounds were diluted to 200 μg/mL in media (1% DMSO). • 100 μl of diluted test compound was added to cells. Final test compound concentration from […] was added and the final DMSO concentration=0.5%. Compounds were tested in duplicate. • Plates were incubated 1 hour at 37° C. • 10 μl of a 2.1 nM TNFα solution was added to each well. Plates were returned to 37° C. for another 4 hours. • TNFα-induced luciferase activity was determined using commercially available kits and a microplate luminometer. • Inhibition of NFkB activity was determined by comparing luciferase activity from test compound-treated cells to luciferase activity in 0.5% DMSO-treated (control) cells.
(In general: In a reporter assay the amount or activity of a reporter protein is the signal.)

Where [1] appears, read: Jurkat NFkB-luciferase reporter cells, TNFα stimulation, 1 hour preincubation + 4 hours.
Setting [2] is: Jurkat NFkB-luciferase reporter cells, TNFα stimulation.

The term IC50 denotes the midpoint of a concentration-inhibition curve. As usually defined, the inhibition is the percentage by which the read-out fell short of the control. A higher inhibition goes with a strong effect.

Where only a bound is given, the exact number is not on record here.

On to `CC[C@H]1OC(=O)[C@H](C)[C@@H](C)[C@H](C)[C@H](OC2O[C@H](C)C[C@H](N(C)C)[C@@H]2OC(=O)c2ccccc2)[C@](C)(O)C[C@H](C)/C(=N\OCOCCN2CCN(c3ccccc3)CC2)[C@@H](C)[C@H](O)[C@@]1(C)O` (stereo partly shown) [Entry 10], for which, under setting [1], the half-maximal inhibitory concentration (IC50) worked out at 30 µM.
Same read-out and setting: next, `C=CCOC1C(C)OC(O[C@H]2[C@@H](CC=O)C[C@@H](C)C(=O)/C=C/C=C/C[C@@H](C)OC(=O)/C=C/[C@@H]2OC)C(O)C1N(C)C` (stereo partly shown) [Entry 8]: 41 µM.
`CC[C@H]1OC(=O)C[C@@H](O)[C@H](C)[C@@H](O[C@@H]2O[C@H](C)[C@@H](OC(=O)c3ccccc3)[C@H](N(C)C)[C@H]2OC(=O)c2ccccc2)[C@@H](CC=O)C[C@@H](C)C(=O)/C=C/C(C)=C/[C@@H]1CO` [compound (3)]: under “comparison in words”, the “activity in vitro inflammatory assay compared with Erythromycin, Clarithromycin, Josamycin and Tylosin” value is “improved activity”.
As for `CO[C@@H]1[C@@H](O[C@@H]2O[C@H](C)[C@@H](O[C@H]3C[C@@](C)(O)[C@@H](OC(=O)CC(C)C)[C@H](C)O3)[C@H](N(C)C)[C@H]2O)[C@@H](CC=O)C[C@@H](C)[C@@H](O)/C=C/C=C/C[C@@H](C)OC(=O)C[C@H]1OC(C)=O` [Josamycin], the half-maximal inhibitory concentration (IC50) under setting [1] was over 120 µM. The compound also returned an inhibition at 120 µM under setting [2] of about 20%.
On to `CC[C@H]1OC(=O)C[C@@H](O)[C@H](C)[C@@H](OC2O[C@H](C)[C@@H](OC(=O)c3ccccc3)[C@H](C(C)C)[C@H]2OC(=O)c2ccccc2)[C@@H](CC=O)C[C@@H](C)C(=O)/C=C/C(C)=C/[C@@H]1CO` (stereo partly shown) [Entry 12], for which the IC50 under setting [1] was found to be 17 µM.
As to `CC[C@H]1OC(=O)[C@H](C)[C@@H](O[C@H]2C[C@@](C)(OC)[C@@H](O)[C@H](C)O2)[C@H](C)[C@@H](O[C@@H]2O[C@H](C)C[C@H](N(C)C)[C@H]2O)[C@](C)(O)C[C@@H](C)C(=O)[C@H](C)[C@@H](O)[C@]1(C)O` [Erythromycin], under setting [1], the “IC50 (μM), in vitro inflammatory data (inhibition of NFkB activity)” value is reported as “Inactive”.
For `CC[C@H]1OC(=O)C[C@@H](O)[C@H](C)[C@@H](O[C@@H]2O[C@H](C)[C@@H](O[C@H]3C[C@@](C)(O)[C@@H](O)[C@H](C)O3)[C@H](N(C)C)[C@H]2O)[C@@H](CC=O)C[C@@H](C)C(=O)/C=C/C(C)=C/[C@@H]1CO[C@@H]1O[C@H](C)[C@@H](O)[C@@H](OC)[C@H]1OC` [Tylosin], the IC50 under setting [1] was over 120 µM. Besides, under setting [2], the inhibition at 120 µM was about 20%.
For the compound `CC[C@@H]1OC(=O)C[C@H](O)[C@@H](C)[C@H](OC2O[C@H](C)[C@H](OC(C)=O)[C@H](N(C)C)[C@@H]2OC(C)=O)[C@H](CCO)C[C@H](C)C(=O)/C=C/C(C)=C/[C@@H]1CO[Si](C)(C)C(C)(C)C` (stereo partly shown) [Entry 11], the IC50 under setting [1] came to 22 µM.
